# Experimental data taken from BindingDB's records for patent US10544130 (Merck Sharp & Dohme Corp., 2020).
# Tests used:
# [1] = target: Metallo-beta-lactamase type 2 (Klebsiella pneumoniae, UniProt C7C422)
# [2] = target: Metallo-beta-lactamase VIM-1 (Pseudomonas aeruginosa, UniProt A0A0F7KYQ8)
# Sequence of Metallo-beta-lactamase type 2 (C7C422 whole entry): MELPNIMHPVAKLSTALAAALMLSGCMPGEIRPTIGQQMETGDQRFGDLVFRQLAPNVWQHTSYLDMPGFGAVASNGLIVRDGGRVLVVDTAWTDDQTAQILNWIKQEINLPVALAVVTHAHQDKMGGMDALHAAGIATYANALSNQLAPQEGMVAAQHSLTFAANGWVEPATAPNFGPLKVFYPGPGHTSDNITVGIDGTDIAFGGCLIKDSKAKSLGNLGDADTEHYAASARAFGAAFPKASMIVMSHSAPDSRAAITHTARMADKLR
IC50 [2],SMILES,IC50 [1]
0.102 nM,"OB(O)c1cccc2[nH]cnc12 [US10544130, Example 12]",
,"COc1ccc(CN(Cc2ccc(OC)cc2)S(=O)(=O)c2c(S(=O)(=O)N[C@@H]3CCN(C(=O)OC(C)(C)C)C3)ccc(I)c2-c2nnn(Cc3ccc(OC)cc3)n2)cc1 [US10544130, Example 72]",0.02 nM
0.158 nM,"COc1ccc(CN(Cc2ccc(OC)cc2)S(=O)(=O)c2c(S(=O)(=O)NC[C@H](CO)NC(=O)OCc3ccccc3)ccc(I)c2-c2nnn(Cc3ccc(OC)cc3)n2)cc1 [US10544130, Example 80]",
0.135 nM,"COc1ccc(CN(Cc2ccc(OC)cc2)S(=O)(=O)c2c(S(=O)(=O)NC[C@@H](CNC(=O)OC(C)(C)C)NC(=O)OC(C)(C)C)ccc(I)c2-c2nnn(Cc3ccc(OC)cc3)n2)cc1 [US10544130, Example 81]",
,"COc1ccc(CN(Cc2ccc(OC)cc2)S(=O)(=O)c2c(S(=O)(=O)N[C@H]3CN(C(=O)OC(C)(C)C)C[C@@H]3NC(=O)OC(C)(C)C)ccc(I)c2-c2nnn(Cc3ccc(OC)cc3)n2)cc1 [US10544130, Example 82]",0.049 nM
,"C[N+]1(CCN)CC[C@@H](NS(=O)(=O)c2ccc(-c3cccc4[nH]c(N)nc34)c(-c3nn[nH]n3)c2S(N)(=O)=O)C1 (stereo not given in full) [US10544130, Example 248]",0.011 nM

SMILES,IC50 [2],IC50 [1]
"N#Cc1cccc(B(O)O)c1N [US10544130, Example 11]",0.05 nM,0.019 nM
"Nc1ncccc1-c1ccc(S(=O)(=O)N[C@H]2C[C@@H]2N)c(S(N)(=O)=O)c1-c1nn[nH]n1 [US10544130, Example 216]",0.269 nM,0.237 nM
